Results published in ChEMBL document CHEMBL5724796, “Tm Shift (DSF) assay results for EUbOPEN Chemogenomics Library” (2024).
Residues, ends and D or L forms follow the SMILES beside them. *: point of attachment. Cbz = O=C(OCc1ccccc1)*; CH2F = FC*

Columns and labels:
Peregrin (Homo sapiens) = target: T1, Peregrin (Homo sapiens) (UniProt P55201); conditions: Compound concentration 20.0 uM
T1 sequence (whole entry): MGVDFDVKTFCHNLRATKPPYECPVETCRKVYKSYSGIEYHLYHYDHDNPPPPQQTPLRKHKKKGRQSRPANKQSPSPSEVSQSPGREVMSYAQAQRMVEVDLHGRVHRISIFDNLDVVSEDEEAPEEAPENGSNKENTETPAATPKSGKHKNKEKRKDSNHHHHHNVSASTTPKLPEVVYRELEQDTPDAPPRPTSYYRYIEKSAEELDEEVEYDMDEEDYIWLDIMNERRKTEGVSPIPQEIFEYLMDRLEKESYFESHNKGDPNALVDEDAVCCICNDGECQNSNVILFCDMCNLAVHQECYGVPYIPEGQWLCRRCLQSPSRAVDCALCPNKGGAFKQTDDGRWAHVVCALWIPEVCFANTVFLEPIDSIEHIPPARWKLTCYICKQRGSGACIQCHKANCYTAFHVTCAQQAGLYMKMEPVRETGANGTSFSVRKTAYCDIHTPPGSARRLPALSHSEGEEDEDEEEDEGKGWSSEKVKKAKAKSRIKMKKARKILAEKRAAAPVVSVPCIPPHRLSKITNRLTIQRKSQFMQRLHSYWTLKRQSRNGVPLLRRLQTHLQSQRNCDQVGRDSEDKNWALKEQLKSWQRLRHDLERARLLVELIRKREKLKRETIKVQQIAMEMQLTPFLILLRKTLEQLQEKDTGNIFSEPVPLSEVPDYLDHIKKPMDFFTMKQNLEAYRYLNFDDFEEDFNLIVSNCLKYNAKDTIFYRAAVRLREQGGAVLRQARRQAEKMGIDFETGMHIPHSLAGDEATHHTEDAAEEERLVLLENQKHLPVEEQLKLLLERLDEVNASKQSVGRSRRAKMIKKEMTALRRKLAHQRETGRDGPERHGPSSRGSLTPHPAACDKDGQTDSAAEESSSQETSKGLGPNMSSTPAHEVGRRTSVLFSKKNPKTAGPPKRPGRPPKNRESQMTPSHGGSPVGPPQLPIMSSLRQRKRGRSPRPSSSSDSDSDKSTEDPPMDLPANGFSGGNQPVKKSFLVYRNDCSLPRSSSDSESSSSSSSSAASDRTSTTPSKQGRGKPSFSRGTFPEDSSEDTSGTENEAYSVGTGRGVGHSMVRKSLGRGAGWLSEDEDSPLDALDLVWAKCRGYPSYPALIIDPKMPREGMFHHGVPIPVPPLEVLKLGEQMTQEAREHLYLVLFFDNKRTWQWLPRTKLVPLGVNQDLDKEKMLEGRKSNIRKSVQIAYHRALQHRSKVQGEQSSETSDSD

[1] = target: Fibroblast growth factor receptor 2 (Homo sapiens) (UniProt P21802); conditions: Compound concentration 20.0 uM
Fibroblast growth factor receptor 2 (Homo sapiens), sequence (P21802 22-821 limits assumed): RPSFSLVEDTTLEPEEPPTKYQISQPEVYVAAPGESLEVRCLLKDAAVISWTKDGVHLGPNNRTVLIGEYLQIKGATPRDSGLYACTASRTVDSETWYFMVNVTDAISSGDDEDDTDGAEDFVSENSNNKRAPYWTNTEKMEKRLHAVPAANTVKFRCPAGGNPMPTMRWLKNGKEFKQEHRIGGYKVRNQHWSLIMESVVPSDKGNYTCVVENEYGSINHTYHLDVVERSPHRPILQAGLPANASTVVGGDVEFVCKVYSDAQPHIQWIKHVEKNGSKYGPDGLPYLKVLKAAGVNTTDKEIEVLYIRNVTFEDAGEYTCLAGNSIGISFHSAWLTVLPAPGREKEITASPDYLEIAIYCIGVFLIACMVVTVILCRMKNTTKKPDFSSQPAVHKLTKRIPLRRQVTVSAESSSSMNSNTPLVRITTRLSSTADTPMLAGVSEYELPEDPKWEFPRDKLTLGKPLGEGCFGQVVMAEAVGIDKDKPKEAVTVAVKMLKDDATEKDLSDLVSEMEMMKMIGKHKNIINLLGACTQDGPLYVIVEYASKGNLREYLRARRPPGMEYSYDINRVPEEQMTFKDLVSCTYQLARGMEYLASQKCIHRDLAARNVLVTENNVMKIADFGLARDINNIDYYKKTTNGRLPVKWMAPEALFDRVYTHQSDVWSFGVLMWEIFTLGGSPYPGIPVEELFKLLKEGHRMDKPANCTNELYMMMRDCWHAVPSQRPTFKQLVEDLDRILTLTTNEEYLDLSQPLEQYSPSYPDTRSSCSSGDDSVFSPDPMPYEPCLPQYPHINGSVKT
Description: Thermal Shift Assay. Domain: start/stop: T457-E768

Row | SMILES | ΔTm (Peregrin (Homo sapiens)) | ΔTm [1]
1 | CC(C)(C)NS(=O)(=O)c1cccc2c(NC(=O)[C@H](Cc3ccccc3)NC(=O)C3CCCCC3)cccc12 | 0.28 °C | 0.01 °C
2 | CN(C)CC(c1ccc(O)cc1)C1(O)CCCCC1 (stereo not given) | -1.07 °C | -0.09 °C
3 | Cn1c(=O)c2c(nc(N3CCNCC3)n2Cc2nnc(-c3ccc(Cl)c(Cl)c3)o2)n(C)c1=O | -0.83 °C | 0.08 °C
4 | OC1CN=C2c3ccn([C@@H]4O[C@H]([C@H](O)c5ccc(Cl)cc5)[C@@H](O)[C@H]4O)c3N=CN21 (stereo not given in full) | -0.74 °C | 0.52 °C
5 | N#Cc1ccc(-c2c3n(c4cccnc24)CCN(C2CC2)C3=O)cc1F | -0.31 °C | -0.59 °C
6 | OC[C@H]1O[C@@H](c2ccc(Cl)c(Cc3ccc(OCCOC4CC4)cc3)c2)[C@H](O)[C@@H](O)[C@@H]1O | 0.43 °C | -0.3 °C
7 | C[C@@H]1CN(c2ncc(Cl)c(Nc3ccc4c(c3)n(CCC(C)(C)O)c(=O)n4C)n2)C[C@H](C)C1(F)F | -5.71 °C | -3.16 °C
8 | Cc1cc(/N=N/c2ccc3c(c2)CCC(=O)N3)c(N)cc1O | 1.01 °C | 0.16 °C
9 | N[C@@H](CCCCB(O)O)C(=O)O | 0.2 °C | 0.29 °C
10 | COC(=O)c1ccc(CN2CCC(O)(Cn3cnc4c(-c5ccc(CN)cc5)n(C)nc4c3=O)CC2)c(Cl)c1 | 1.55 °C | -0.37 °C
11 | O=C(NO)C(c1ccc(-c2ncc(C(F)(F)F)cn2)cc1)c1ccccc1F (stereo not given) | -0.82 °C | -0.81 °C
12 | CC(=O)C(=Cc1cc(O)c(O)c([N+](=O)[O-])c1)C(C)=O | 0.33 °C | -0.23 °C
13 | CCn1c(=O)c(C)cn(Cc2nnc(-c3ccc(F)c(OC)c3F)s2)c1=O | -0.72 °C | 0.75 °C
14 | Cc1ncsc1-c1ccc(CNC(=O)[C@@H]2C[C@@H](O)CN2C(=O)[C@@H](NC(=O)COCCOCCOCCNC(=O)C[C@@H]2N=C(c3ccc(Cl)cc3)c3c(sc(C)c3C)-n3c(C)nnc32)C(C)(C)C)cc1 | -1.64 °C | 0.61 °C
15 | N#Cc1nc2c(nc1C#N)-c1ccccc1C2=NOCc1ccccc1 | 5.25 °C | 0.78 °C
16 | O=C(O)CCNc1cc(N2CCc3ccccc3CC2)nc(-c2cccnc2)n1 | -1.01 °C | 0.9 °C
17 | COc1cccc(-c2nccc3c2CN(c2ccccc2)C3=O)c1 | -0.63 °C | 0.77 °C
18 | Cc1cc(C(=O)CN2CCC(O)CC2)c(C)n1-c1ccc(C#N)cc1 | 1.04 °C | -0.17 °C
19 | CC(=Cc1cc(C)ccc1C=C(C)C(=O)NC(=N)N)C(=O)N=C(N)N | -1.11 °C | -0.04 °C
20 | Cc1cc(OCCCNCCC(N)=O)ccc1Cc1c(O[C@@H]2O[C@H](CO)[C@@H](O)[C@H](O)[C@H]2O)n[nH]c1C(C)C | 1.37 °C | 0.45 °C

Row | SMILES | ΔTm (Peregrin (Homo sapiens)) | ΔTm [1]
21 | Cc1cc(-c2ccccc2)cc(C(=O)NNS(=O)(=O)c2ccccc2)c1F | -1.3 °C | 0 °C
22 | O=C(NCCc1cc(C(=O)NO)no1)c1ccc(Cl)c(Cl)c1 | -1.25 °C | 0.8 °C
23 | CC(C)NC(=O)c1ccc(OC(F)F)c(OCC2CC2)c1 | 0.69 °C | 0.29 °C
24 | OC[C@H]1O[C@@H](c2ccc(F)c(Cc3cc4ccccc4s3)c2)[C@H](O)[C@@H](O)[C@@H]1O | 1.12 °C | -0.55 °C
25 | COc1cc(C(C)C)c2c(c1)S(=O)(=O)N(COc1cc(=O)n3cccc(OCCN4CCCCC4)c3n1)C2=O | -1.13 °C | 1.04 °C
26 | CC(C)N(C(=O)c1cc(F)ccc1Oc1cncnc1N1CC2(CCN(C[C@H]3CC[C@H](NS(C)(=O)=O)CC3)CC2)C1)C(C)C | 0.63 °C | -0.47 °C
27 | CNC(=O)Cn1cc(-c2ccc3c(c2)[C@H](F)C[C@]32NC(=O)N(CC(=O)N(Cc3ccc(F)cc3)[C@@H](C)C(F)(F)F)C2=O)cn1 | -0.07 °C | -0.18 °C
28 | N[C@@H](CCNCc1ccc(Cl)cc1)C(=O)N1CCCCC1 | 0.85 °C | -0.56 °C
29 | O=C(O)/C(S)=C/c1c[nH]c2ccc(F)cc12 | -0.77 °C | 0.66 °C
30 | CCN(CC)S(=O)(=O)c1cc(Nc2nccc(-c3ccnc(-c4ccc(NC(=O)NC)cc4)c3)n2)ccc1Cl | -7.45 °C | -4.8 °C
31 | COC(=O)CC(NC(=O)C(C)NC(=O)C(NC(=O)C(CC(=O)OC)NC(=O)C(NC(=O)OCc1ccccc1)C(C)C)C(C)C)C(=O)CF (stereo not given) (Cbz-VD(OMe)VAD(OMe)-CH2F; configuration not given here) | 2.28 °C | -0.48 °C
32 | O=[N+]([O-])c1c(Nc2cc(F)cc(Cl)c2)ccc2nonc12 | 0.04 °C | -0.15 °C
33 | CC(C)(F)C[C@H](N[C@@H](c1ccc(-c2ccc(S(C)(=O)=O)cc2)cc1)C(F)(F)F)C(=O)NC1(C#N)CC1 | -1.04 °C | 0.18 °C
34 | Cc1cc(C(=O)N2CCN(C3CN(C(=O)c4ccc(-c5ccccc5)cc4)C3)CC2)no1 | -1.49 °C | 1.38 °C
35 | CC1(C)c2cccc(C(=O)NO)c2CN1c1cnc(C(F)(F)F)cn1 | 0.66 °C | 0.83 °C
36 | Oc1ccc(-c2c(-c3ccccc3)nn3c(C(F)(F)F)cc(C(F)(F)F)nc23)cc1 | -1.38 °C | 1.15 °C
37 | COCCOc1cc(CC2CCN(CCc3ccc4c(c3)C(=O)CCO4)CC2)ccc1Br | 1.8 °C | -0.65 °C
38 | Cc1c(NC(=O)c2cc(C(N)=O)nc3cc(F)ccc23)c(C(F)(F)F)nn1Cc1ccc(C#N)cc1 | 0.94 °C | 0.32 °C
39 | COC(=O)C1=C(C(=O)OC)[C@@]2([C@@H](Cc3ccc(C)cc3)Nc3ccccc3)C=C[C@@H]1O2 | -3.55 °C | 0.51 °C
40 | O=C(O)C1=CCCN(CCOC(c2ccc(C(F)(F)F)cc2)c2ccc(C(F)(F)F)cc2)C1 | 0.47 °C | -0.15 °C

Row | SMILES | ΔTm (Peregrin (Homo sapiens)) | ΔTm [1]
41 | COc1ccc(-c2c(-c3ccc(C#N)c(F)c3)nc(N3CCC(N)CC3)n(C)c2=O)cc1F | 1.09 °C | 0.16 °C
42 | Cc1nc(-c2cnc(NC(C)C)n(C)c2=O)ccc1Oc1ccnc(-c2cnn(C)c2)c1 | -1.33 °C | 0.6 °C
43 | O=C(N1CCCC[C@@H]1Cc1ccccc1)n1cc(-c2ccc(-c3ccccc3)cc2)nn1 | 0.6 °C | 0 °C
44 | CCCCCCCC(=O)N[C@H](CN1CCCC1)[C@H](O)c1ccc2c(c1)OCCO2 | 1.02 °C | 0.38 °C
45 | CC(=O)O[C@]1(C(C)=O)CC[C@H]2[C@@H]3C=C(Cl)C4=CC(=O)[C@@H]5C[C@@H]5[C@]4(C)[C@H]3CC[C@@]21C | -1.28 °C | 0.57 °C
46 | O=C(NCCCCCCCCNC(=O)C(Cl)Cl)C(Cl)Cl | 0.99 °C | -0.34 °C
47 | C[C@@H]1CN(c2nccc(Nc3ccc4c(c3)n(CCC(C)(C)O)c(=O)n4C)n2)C[C@H](C)C1(F)F | -0.49 °C | -0.7 °C
48 | C=CCn1c(N[C@@H]2C[C@H](c3ccc(OCc4ccccc4)cc3)CN(C)C2)nc2cc[nH]c2c1=O | 3.96 °C | 0.37 °C
49 | COc1cc(C(=O)N2C[C@H](N)CC[C@@H]2C)cc2nc(-c3cc4cccnc4n3CC3CC3)n(C)c12 | 0.21 °C | 0.33 °C
50 | O=C(c1cccc(-c2ccc(-c3cn(C(=O)N4CCCCC4c4ccccc4)nn3)cc2)c1)N1CCCCC1 (stereo not given) | 3.63 °C | 2.55 °C
51 | Cc1cc(/N=N/c2ccc(S(=O)(=O)NC3CCCC3)cc2)c(N)cc1O | 7.73 °C | 2.06 °C
52 | CCCCCCCCCCCCCCCCNNC(=O)c1cccs1 | -0.84 °C | 0.53 °C
53 | Cc1ncsc1-c1ccc([C@H](C)NC(=O)[C@@H]2C[C@@H](O)CN2C(=O)[C@@H](NC(=O)COCCCOCCNC(=O)C[C@@H]2N=C(c3ccc(Cl)cc3)c3c(sc(C)c3C)-n3c(C)nnc32)C(C)(C)C)cc1 | -1.73 °C | -0.49 °C
54 | FC(F)(F)Cn1cc(-c2ccncc2)c(-c2ccc(OCc3ccc4ccccc4n3)cc2)n1 | 0.9 °C | 0.04 °C
55 | COc1cc2c(cc1OC)[C@H]1C[C@@H](O)[C@H](CC(C)C)CN1CC2 | 0.34 °C | 0.33 °C
56 | CCCCOc1c(OC)cc(C(=O)NCC2(N(C)C)CCOCC2)cc1OC | -1.37 °C | -0.02 °C
57 | CN(Cc1cc(Br)cc(Br)c1N)C1CCCCC1 | 1.45 °C | -0.25 °C
58 | CN(CCOc1ccc(-c2ccc3c(c2)OCO3)cc1C(C)(C)C)CC(=O)O | 2.31 °C | -0.25 °C
59 | O=C(NCCCn1ccnc1)c1cc2nc(-c3ccccc3)cc(-c3ccccc3)n2n1 | -1.26 °C | 0.5 °C
60 | COc1ccc(-n2c(SCCCN3C(=O)c4cccc5cccc(c45)C3=O)nnc2-c2ccncc2)cc1 | 0.39 °C | 0.21 °C
